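Briefly, cells in 96-well plates were exposed to five compound concentrations for 48 h, and endpoints were estimated by linear interpolation. At the GI50, growth is halved. TGI marks complete inhibition of growth.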
Key:
Assay in all cases: inhibition of tumour cell growth, NCI panel, 48 h
SK-MEL-2 melanoma = system: SK-MEL-2 melanoma
SK-OV-3 ovarian = system: SK-OV-3 ovarian
OVCAR-8 ovarian = system: OVCAR-8 ovarian
HOP-92 NSCLC = system: HOP-92 NSCLC
SK-MEL-28 melanoma = system: SK-MEL-28 melanoma
SF-295 CNS = system: SF-295 CNS
UACC-257 melanoma = system: UACC-257 melanoma
RXF 393 renal = system: RXF 393 renal
SF-268 CNS = system: SF-268 CNS
NCI/ADR-RES ovarian = system: NCI/ADR-RES ovarian

| Structure (SMILES) | TGI (SK-MEL-2 melanoma) | TGI (SK-OV-3 ovarian) | TGI (OVCAR-8 ovarian) | TGI (HOP-92 NSCLC) [µM] | TGI (SK-MEL-28 melanoma) | TGI (SF-295 CNS) | TGI (UACC-257 melanoma) | TGI (RXF 393 renal) | TGI (SF-268 CNS) | GI50 (SK-OV-3 ovarian) | GI50 (OVCAR-8 ovarian) | GI50 (SF-268 CNS) | GI50 (NCI/ADR-RES ovarian) | TGI (NCI/ADR-RES ovarian) | GI50 (SK-MEL-28 melanoma) | GI50 (SF-295 CNS) | GI50 (UACC-257 melanoma) | GI50 (RXF 393 renal) | GI50 (SK-MEL-2 melanoma) | GI50 (HOP-92 NSCLC) [µM] |
| --- | --- | --- | --- | --- | --- | --- | --- | --- | --- | --- | --- | --- | --- | --- | --- | --- | --- | --- | --- | --- |
| O=C(O)CSc1n[nH]c(-c2ccco2)n1 | > 100 µM | > 100 µM | > 100 µM | > 100 | > 100 µM | > 100 µM | > 100 µM | > 100 µM |  |  |  |  |  |  |  |  |  |  |  |  |
| N#CCc1cccc(CC#N)c1Br | > 100 µM | > 100 µM | > 100 µM | > 100 |  | > 100 µM | > 100 µM | 93.7 µM | > 100 µM |  |  |  |  |  |  |  |  |  |  |  |
| Cc1cc(NN=C(c2ccc(O)cc2)c2ccc(O)cc2)c([N+](=O)[O-])cc1[N+](=O)[O-] |  | 19.9 µM | > 100 µM |  | 21.2 µM | 22.2 µM | 8.29 µM | 6.56 µM | 57.3 µM | 2.98 µM | 4.08 µM | 5.34 µM | 3.75 µM | > 100 µM | 5.59 µM | 4.91 µM | 4.71 µM | 1.79 µM |  |  |
| Cc1ccc2ccc(-c3ccccc3)c3c2c1C(=O)c1ccccc1C3=O | > 100 µM | > 100 µM | > 100 µM | 74.4 | > 100 µM | > 100 µM | > 100 µM | > 100 µM | > 100 µM |  |  |  |  |  |  |  |  |  |  |  |
| Cc1ccc(S(=O)C(C)C(Cl)c2ccccc2)cc1 (stereo not given) | > 100 µM | > 100 µM | > 100 µM | > 100 | > 100 µM | > 100 µM | > 100 µM | > 100 µM | > 100 µM |  |  |  |  |  |  |  |  |  |  |  |
| N#[N+]c1ccc(Nc2ccccc2)cc1 | > 50 µg/mL | > 50 µg/mL | > 50 µg/mL |  | > 50 µg/mL | > 50 µg/mL | > 50 µg/mL | > 50 µg/mL | > 50 µg/mL | > 50 µg/mL | > 50 µg/mL | > 50 µg/mL | > 50 µg/mL | > 50 µg/mL | > 50 µg/mL | > 50 µg/mL | > 50 µg/mL | > 50 µg/mL | > 50 µg/mL |  |
| Cn1cnnc1[S-].[Au+].c1ccc([PH+](c2ccccc2)c2ccccc2)cc1 | 3.17 µM |  |  | 3.31 | 2.91 µM | 3.82 µM | 2.94 µM | 2.8 µM | 3.44 µM |  |  | 1.7 µM |  |  | 1.52 µM | 1.85 µM | 1.35 µM | 1.42 µM | 1.6 µM | 1.88 |
| CCOC(=O)c1c(NC(=O)c2ccc(Cl)cc2)sc2c(CN(C)C)c(O)ccc12 | 41.1 µM | 33.3 µM | 19.2 µM | 6.07 |  | 16.4 µM |  | 13.4 µM | 48.8 µM | 10.9 µM | 3.55 µM | 7.63 µM | 8.57 µM | 36.1 µM |  | 3.79 µM |  | 2.98 µM | 6.51 µM | 1.78 |
| Cc1ccc(C2CC(c3ccc(Nc4ccnc5cc(Cl)ccc45)cc3)=NN2C=O)cc1 (stereo not given) |  | > 100 µM | > 100 µM | > 100 | > 100 µM | > 100 µM | > 100 µM | > 100 µM | > 100 µM | > 100 µM | > 100 µM | 8.61 µM | 5.22 µM | > 100 µM | > 100 µM | 4 µM | > 100 µM | 4.89 µM |  | 2.14 |
| CCc1ccc2c(c1)N(CCO)C1=C(C(=O)OC1)C2c1cc(OC)c(OC)c(OC)c1 (stereo not given) | 0.469 µM |  | 1.22 µM | > 50 | > 50 µM | 0.469 µM | > 50 µM |  | > 19.8 µM | 0.169 µM | 0.184 µM | 0.3 µM | 0.974 µM | 6.65 µM | 0.275 µM | 0.126 µM | 0.197 µM |  | 0.143 µM | 0.716 |
| O=C1OC(=O)C([Se]c2ccccc2)=C1[Se]c1ccccc1 |  | > 100 µM | > 100 µM | > 100 | > 100 µM | > 100 µM | > 100 µM | > 100 µM | > 100 µM |  |  |  |  |  |  |  |  |  |  |  |
| COc1cccc(/C=N\NC(=O)C(C)SC(C)C(=O)N/N=C/c2cccc(OC)c2)c1 (stereo not given) | > 62.6 µM | 32.4 µM | 70 µM | 38.8 | > 72.8 µM | > 88.6 µM | > 100 µM | 28.6 µM | 97.5 µM |  |  |  |  |  |  |  |  |  |  |  |
| C=C1CC[C@H]2C(C)=CC[C@H]3C(=C)C(=O)O[C@@H]3[C@@H]12 | > 100 µM | > 100 µM | > 100 µM | > 100 | > 100 µM | > 100 µM | > 100 µM |  |  |  |  |  |  | > 100 µM |  |  |  |  |  |  |
| O=C(/C=C/c1ccccc1O)c1ccccc1Cl | > 100 µM | > 100 µM | > 100 µM | > 100 | > 100 µM | > 100 µM | > 100 µM | > 100 µM | > 100 µM |  |  |  |  |  |  |  |  |  |  |  |
| CC1(C)OC(=O)C(=C2CCC(C(=O)Nc3cccc(C(F)(F)F)c3)N2)C(=O)O1 (stereo not given) | > 100 µM | > 100 µM | > 100 µM | > 100 | > 100 µM | > 100 µM | > 100 µM | > 100 µM | > 100 µM |  |  |  |  |  |  |  |  |  |  |  |
| O=C1C(=O)C2(CC1S(=O)(=O)c1ccccc1)c1ccccc1-c1ccccc12 (stereo not given) | 33.8 µM | > 100 µM | 34.5 µM |  | 35.8 µM | 37.7 µM | 33 µM | 35.6 µM | 76.7 µM |  |  |  |  |  |  |  |  |  |  |  |
| O=C1CCC(=O)N1Sc1ccccc1 | > 100 µM | > 100 µM | > 100 µM | > 100 | > 100 µM | > 100 µM | > 100 µM | > 100 µM | > 100 µM |  |  |  |  |  |  |  |  |  |  |  |
| COc1ccccc1NC(=O)C1=C(C)NC(C)=C(C(=O)Nc2ccccc2OC)C1c1ccco1 | 31.4 µM | > 76.3 µM | > 100 µM | 24.2 | > 92 µM | > 44.2 µM | 43.4 µM | 10.6 µM | > 97.3 µM |  |  |  |  |  |  |  |  |  |  |  |
| COc1ccc(-c2c(N)noc2-c2cc(OC)c3c(c2)OCCO3)cc1 | 67.5 µM | 1.01 µM | > 33.2 µM | > 40 | > 100 µM | 22.3 µM |  | 0.0467 µM | > 100 µM | < 0.0121 µM | 0.0212 µM | 0.0481 µM | < 0.01 µM | 0.0226 µM | 0.026 µM | < 0.01 µM |  | < 0.01 µM | < 0.01 µM | 0.12 |

— PubChem BioAssay (NCI)
